Laboratory results reported in ChEMBL document CHEMBL3991601, “The target landscape of clinical kinase drugs” (Science, 2017).
The source made the active and inactive calls.

Assays:
[1] = molecular target: ATP-dependent RNA helicase DDX3X (Homo sapiens, UniProt O00571)
[2] = molecular target: DNA topoisomerase 2-beta (Homo sapiens, UniProt Q02880)
[3] = molecular target: T1, Peroxisomal acyl-coenzyme A oxidase 3 (Homo sapiens, UniProt O15254)
T1 sequence (O15254 whole entry): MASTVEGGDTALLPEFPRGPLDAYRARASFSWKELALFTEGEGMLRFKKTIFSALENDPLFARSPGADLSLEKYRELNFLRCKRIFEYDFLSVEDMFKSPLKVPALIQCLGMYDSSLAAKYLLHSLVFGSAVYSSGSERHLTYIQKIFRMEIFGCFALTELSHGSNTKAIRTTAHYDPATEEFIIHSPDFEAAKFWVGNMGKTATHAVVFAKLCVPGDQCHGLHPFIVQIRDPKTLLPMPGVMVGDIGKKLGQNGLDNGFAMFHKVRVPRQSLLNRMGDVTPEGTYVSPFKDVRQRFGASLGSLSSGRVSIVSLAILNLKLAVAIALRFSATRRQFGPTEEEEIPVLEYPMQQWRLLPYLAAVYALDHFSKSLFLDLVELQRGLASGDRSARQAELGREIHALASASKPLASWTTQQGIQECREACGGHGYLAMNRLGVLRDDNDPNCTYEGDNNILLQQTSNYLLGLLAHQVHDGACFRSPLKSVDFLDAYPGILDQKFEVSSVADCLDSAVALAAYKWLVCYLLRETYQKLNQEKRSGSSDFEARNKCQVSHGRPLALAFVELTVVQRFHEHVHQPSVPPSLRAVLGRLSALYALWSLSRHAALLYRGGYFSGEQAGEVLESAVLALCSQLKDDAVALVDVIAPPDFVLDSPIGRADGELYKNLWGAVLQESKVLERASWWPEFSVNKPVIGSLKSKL

[4] = molecular target: Protein kinase C alpha type (Homo sapiens, UniProt P17252)
[5] = molecular target: T2, ADP/ATP translocase 3 (Homo sapiens, UniProt P12236)
T2 sequence (P12236 whole entry): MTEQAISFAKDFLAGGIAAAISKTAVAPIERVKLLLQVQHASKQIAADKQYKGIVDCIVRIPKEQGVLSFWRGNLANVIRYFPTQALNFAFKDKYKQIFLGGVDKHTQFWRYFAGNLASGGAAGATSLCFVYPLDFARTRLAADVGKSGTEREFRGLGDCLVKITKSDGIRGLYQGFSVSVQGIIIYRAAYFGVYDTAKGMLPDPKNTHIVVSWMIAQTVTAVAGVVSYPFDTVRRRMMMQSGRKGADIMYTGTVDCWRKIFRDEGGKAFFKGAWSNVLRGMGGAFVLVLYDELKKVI

[6] = molecular target: T3, Dual specificity mitogen-activated protein kinase kinase 6 (Homo sapiens, UniProt P52564)
T3 sequence (P52564 whole entry): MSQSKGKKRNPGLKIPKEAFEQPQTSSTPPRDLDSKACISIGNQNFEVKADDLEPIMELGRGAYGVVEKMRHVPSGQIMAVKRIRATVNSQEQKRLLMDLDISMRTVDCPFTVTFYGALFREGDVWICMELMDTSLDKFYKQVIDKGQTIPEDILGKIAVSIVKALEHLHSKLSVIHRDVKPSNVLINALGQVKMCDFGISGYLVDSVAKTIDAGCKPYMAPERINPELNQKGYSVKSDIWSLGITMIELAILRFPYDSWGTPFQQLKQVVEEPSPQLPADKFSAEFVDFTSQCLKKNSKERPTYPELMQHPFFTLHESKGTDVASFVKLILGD

[7] = molecular target: Mitogen-activated protein kinase 10 (Homo sapiens, UniProt P53779)
Mitogen-activated protein kinase 10, sequence (P53779 whole entry): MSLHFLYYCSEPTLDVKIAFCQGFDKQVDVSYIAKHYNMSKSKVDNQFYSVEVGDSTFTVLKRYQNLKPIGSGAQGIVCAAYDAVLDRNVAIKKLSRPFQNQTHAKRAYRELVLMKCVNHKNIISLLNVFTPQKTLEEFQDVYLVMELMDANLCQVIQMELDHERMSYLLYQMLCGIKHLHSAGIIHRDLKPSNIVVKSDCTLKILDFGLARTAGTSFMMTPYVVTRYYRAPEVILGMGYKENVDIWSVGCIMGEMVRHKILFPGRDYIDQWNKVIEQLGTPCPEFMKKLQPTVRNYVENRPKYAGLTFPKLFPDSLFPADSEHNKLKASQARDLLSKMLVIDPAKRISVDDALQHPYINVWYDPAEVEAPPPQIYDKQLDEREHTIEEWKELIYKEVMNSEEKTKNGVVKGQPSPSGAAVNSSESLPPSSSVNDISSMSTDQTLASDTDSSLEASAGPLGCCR

[8] = molecular target: T4, Mitogen-activated protein kinase kinase kinase kinase 3 (Homo sapiens, UniProt Q8IVH8)
T4 sequence (Q8IVH8 whole entry): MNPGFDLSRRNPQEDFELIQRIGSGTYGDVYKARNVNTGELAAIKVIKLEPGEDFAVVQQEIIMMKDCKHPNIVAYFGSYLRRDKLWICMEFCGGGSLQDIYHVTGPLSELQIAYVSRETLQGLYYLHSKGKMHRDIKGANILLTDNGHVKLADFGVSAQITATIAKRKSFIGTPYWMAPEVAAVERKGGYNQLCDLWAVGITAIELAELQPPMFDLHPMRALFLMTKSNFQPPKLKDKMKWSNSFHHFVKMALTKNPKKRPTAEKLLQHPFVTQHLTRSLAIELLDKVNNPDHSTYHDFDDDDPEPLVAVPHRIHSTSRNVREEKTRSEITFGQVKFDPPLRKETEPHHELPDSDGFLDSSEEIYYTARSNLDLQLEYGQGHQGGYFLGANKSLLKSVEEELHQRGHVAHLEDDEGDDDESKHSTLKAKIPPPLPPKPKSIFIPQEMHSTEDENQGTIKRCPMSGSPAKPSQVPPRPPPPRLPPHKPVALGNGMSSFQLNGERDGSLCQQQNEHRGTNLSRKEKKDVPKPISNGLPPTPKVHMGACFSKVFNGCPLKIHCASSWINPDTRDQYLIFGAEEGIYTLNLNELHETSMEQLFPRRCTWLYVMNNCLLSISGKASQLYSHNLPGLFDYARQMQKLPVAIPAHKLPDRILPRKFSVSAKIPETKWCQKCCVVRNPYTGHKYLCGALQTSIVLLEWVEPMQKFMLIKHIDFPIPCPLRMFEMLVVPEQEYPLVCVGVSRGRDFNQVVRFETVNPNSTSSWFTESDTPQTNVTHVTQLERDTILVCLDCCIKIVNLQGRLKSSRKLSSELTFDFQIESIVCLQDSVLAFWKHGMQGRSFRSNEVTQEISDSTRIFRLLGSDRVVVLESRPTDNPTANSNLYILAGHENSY

[9] = molecular target: T5, Phosphatidylinositol 5-phosphate 4-kinase type-2 alpha (Homo sapiens, UniProt P48426)
T5 sequence (P48426 whole entry): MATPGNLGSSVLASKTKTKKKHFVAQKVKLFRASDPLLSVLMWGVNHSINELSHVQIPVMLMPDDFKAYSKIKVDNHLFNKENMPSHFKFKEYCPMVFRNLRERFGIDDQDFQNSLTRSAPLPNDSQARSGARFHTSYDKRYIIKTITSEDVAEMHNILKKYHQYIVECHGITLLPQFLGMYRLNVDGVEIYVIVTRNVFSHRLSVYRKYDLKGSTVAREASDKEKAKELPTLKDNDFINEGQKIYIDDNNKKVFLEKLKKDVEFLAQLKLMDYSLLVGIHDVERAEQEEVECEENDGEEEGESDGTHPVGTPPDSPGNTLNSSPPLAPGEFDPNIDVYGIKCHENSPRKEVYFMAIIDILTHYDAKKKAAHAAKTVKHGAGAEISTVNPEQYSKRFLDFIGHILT
Further: in the data inactive means no Kd found up to 30 µM.

DNA topoisomerase 2-beta, sequence (Q02880 whole entry): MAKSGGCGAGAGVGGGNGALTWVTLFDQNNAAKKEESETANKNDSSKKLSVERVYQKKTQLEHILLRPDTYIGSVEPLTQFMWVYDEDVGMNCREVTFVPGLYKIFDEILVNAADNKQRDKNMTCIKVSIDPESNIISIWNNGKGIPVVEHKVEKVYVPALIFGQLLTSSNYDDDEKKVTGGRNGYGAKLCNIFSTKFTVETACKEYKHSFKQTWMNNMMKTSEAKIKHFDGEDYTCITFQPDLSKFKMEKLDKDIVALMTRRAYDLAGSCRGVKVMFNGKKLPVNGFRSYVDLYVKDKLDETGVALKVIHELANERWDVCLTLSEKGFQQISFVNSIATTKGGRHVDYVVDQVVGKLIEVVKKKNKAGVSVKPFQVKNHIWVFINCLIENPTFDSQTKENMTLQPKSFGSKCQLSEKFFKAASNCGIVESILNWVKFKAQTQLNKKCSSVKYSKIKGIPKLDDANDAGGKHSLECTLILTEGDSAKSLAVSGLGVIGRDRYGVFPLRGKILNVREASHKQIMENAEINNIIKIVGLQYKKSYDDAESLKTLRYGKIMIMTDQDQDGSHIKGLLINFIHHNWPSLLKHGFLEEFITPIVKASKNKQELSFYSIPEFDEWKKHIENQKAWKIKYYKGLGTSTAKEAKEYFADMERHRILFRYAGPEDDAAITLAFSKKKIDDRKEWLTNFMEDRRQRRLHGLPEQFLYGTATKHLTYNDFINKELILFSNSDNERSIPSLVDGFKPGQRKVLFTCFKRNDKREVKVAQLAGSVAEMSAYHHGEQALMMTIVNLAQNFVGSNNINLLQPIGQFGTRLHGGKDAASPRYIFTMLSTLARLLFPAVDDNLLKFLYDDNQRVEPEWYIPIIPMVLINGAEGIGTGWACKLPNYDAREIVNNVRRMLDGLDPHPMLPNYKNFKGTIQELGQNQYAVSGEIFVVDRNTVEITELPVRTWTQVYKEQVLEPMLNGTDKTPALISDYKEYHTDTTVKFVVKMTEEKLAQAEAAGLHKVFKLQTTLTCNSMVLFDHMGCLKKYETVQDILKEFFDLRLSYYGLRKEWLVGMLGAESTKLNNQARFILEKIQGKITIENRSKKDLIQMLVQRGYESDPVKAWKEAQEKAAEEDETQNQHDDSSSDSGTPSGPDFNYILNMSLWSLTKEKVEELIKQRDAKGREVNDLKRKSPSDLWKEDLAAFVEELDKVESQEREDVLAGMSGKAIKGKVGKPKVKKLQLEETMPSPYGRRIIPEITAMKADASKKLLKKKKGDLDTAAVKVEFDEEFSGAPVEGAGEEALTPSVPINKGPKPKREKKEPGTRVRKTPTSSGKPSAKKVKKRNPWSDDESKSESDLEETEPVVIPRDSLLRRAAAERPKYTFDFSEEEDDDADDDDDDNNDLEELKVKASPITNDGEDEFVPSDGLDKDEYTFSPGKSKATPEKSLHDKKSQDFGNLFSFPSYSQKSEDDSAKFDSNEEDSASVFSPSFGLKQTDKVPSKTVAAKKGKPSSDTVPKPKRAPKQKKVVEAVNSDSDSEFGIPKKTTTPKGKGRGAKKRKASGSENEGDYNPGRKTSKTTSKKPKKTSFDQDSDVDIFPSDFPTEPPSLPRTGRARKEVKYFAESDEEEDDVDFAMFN
ATP-dependent RNA helicase DDX3X, sequence (O00571 whole entry): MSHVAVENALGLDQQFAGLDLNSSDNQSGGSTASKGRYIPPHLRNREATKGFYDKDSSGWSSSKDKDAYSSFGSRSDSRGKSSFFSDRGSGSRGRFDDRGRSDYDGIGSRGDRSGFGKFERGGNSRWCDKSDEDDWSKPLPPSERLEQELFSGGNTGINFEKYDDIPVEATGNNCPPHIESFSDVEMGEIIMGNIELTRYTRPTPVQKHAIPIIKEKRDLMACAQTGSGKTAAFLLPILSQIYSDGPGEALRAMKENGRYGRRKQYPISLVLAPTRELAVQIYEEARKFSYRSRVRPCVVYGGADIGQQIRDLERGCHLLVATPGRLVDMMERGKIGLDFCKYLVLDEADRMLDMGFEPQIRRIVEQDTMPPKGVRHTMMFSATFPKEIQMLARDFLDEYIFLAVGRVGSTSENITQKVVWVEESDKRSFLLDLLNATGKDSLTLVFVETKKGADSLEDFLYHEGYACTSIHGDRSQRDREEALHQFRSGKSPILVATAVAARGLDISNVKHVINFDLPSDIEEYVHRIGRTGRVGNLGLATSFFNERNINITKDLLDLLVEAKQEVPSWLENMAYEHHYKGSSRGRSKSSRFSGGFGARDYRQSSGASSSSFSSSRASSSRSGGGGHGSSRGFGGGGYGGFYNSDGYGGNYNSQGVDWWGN

Compound	Kd [1]	Kd [2]	Kd [3]	Kd [4]	Kd [5]	Kd [6]	Kd [7]	Kd [8]	Kd [9]
COc1cc2ncnc3c2cc1OCCCCCN(C)Cc1ccc(Br)cc1N3 [JNJ-26483327]	> 30 µM (inactive)	> 30 µM (inactive)	> 30 µM (inactive)	> 30 µM (inactive)	> 30 µM (inactive)	> 30 µM (inactive)	> 30 µM (inactive)	> 30 µM (inactive)	–
CN(c1ncccc1CNc1nc(Nc2ccc3c(c2)CC(=O)N3)ncc1C(F)(F)F)S(C)(=O)=O [PF-00562271]	> 30 µM (inactive)	> 30 µM (inactive)	> 30 µM (inactive)	> 30 µM (inactive)	> 30 µM (inactive)	–	–	> 30 µM (inactive)	> 30 µM (inactive)
COc1cc2c(Oc3ccc4[nH]c(C)cc4c3F)ncnc2cc1OCCCN1CCCC1 [CEDIRANIB]	> 30 µM (inactive)	> 30 µM (inactive)	> 30 µM (inactive)	> 30 µM (inactive)	> 30 µM (inactive)	–	–	–	> 30 µM (inactive)
N#CCNC(=O)c1ccc(-c2ccnc(Nc3ccc(N4CCOCC4)cc3)n2)cc1 [MOMELOTINIB]	> 30 µM (inactive)	> 30 µM (inactive)	> 30 µM (inactive)	> 30 µM (inactive)	> 30 µM (inactive)	> 30 µM (inactive)	–	–	> 30 µM (inactive)
CC1(C)CNc2cc(NC(=O)c3cccnc3NCc3ccncc3)ccc21 [MOTESANIB]	> 30 µM (inactive)	> 30 µM (inactive)	> 30 µM (inactive)	> 30 µM (inactive)	> 30 µM (inactive)	–	–	–	> 30 µM (inactive)
CN(C)C/C=C/C(=O)Nc1cc2c(Nc3ccc(F)c(Cl)c3)ncnc2cc1O[C@H]1CCOC1 [AFATINIB]	> 30 µM (inactive)	> 30 µM (inactive)	> 30 µM (inactive)	> 30 µM (inactive)	> 30 µM (inactive)	–	–	–	> 30 µM (inactive)
NC(=O)c1ccc(N(C(N)=O)c2c(F)cccc2F)nc1-c1ccc(F)cc1F [VX-702]	> 30 µM (inactive)	> 30 µM (inactive)	> 30 µM (inactive)	> 30 µM (inactive)	> 30 µM (inactive)	> 30 µM (inactive)	–	> 30 µM (inactive)	> 30 µM (inactive)
S=C(NCc1ccc2c(c1)OCO2)N1CCN(c2ncnc3c2oc2ccccc23)CC1 [AMUVATINIB]	> 30 µM (inactive)	> 30 µM (inactive)	> 30 µM (inactive)	> 30 µM (inactive)	> 30 µM (inactive)	> 30 µM (inactive)	–	> 30 µM (inactive)	> 30 µM (inactive)
O[C@H]1CC[C@H](Nc2ncc3nc(Nc4c(F)cc(F)cc4F)n([C@H]4CCOC4)c3n2)CC1 [TANZISERTIB]	> 30 µM (inactive)	> 30 µM (inactive)	> 30 µM (inactive)	> 30 µM (inactive)	> 30 µM (inactive)	> 30 µM (inactive)	–	> 30 µM (inactive)	> 30 µM (inactive)
Cn1cnc2c(F)c(Nc3ccc(Br)cc3Cl)c(C(=O)NOCCO)cc21 [SELUMETINIB]	> 30 µM (inactive)	> 30 µM (inactive)	> 30 µM (inactive)	> 30 µM (inactive)	> 30 µM (inactive)	–	–	–	> 30 µM (inactive)
Cn1c(=O)n(-c2ccc(C(C)(C)C#N)cc2)c2c3cc(-c4cnc5ccccc5c4)ccc3ncc21 [DACTOLISIB]	> 30 µM (inactive)	> 30 µM (inactive)	> 30 µM (inactive)	> 30 µM (inactive)	> 30 µM (inactive)	> 30 µM (inactive)	–	> 30 µM (inactive)	> 30 µM (inactive)
COc1cc2c(N3CCN(C(=O)Nc4ccc(OC(C)C)cc4)CC3)ncnc2cc1OCCCN1CCCCC1 [TANDUTINIB]	> 30 µM (inactive)	> 30 µM (inactive)	> 30 µM (inactive)	> 30 µM (inactive)	> 30 µM (inactive)	–	–	–	> 30 µM (inactive)
CCN(CCCOc1ccc2c(Nc3cc(CC(=O)Nc4cccc(F)c4)n[nH]3)ncnc2c1)CCOP(=O)(O)O [BARASERTIB]	> 30 µM (inactive)	> 30 µM (inactive)	> 30 µM (inactive)	> 30 µM (inactive)	> 30 µM (inactive)	> 30 µM (inactive)	–	> 30 µM (inactive)	> 30 µM (inactive)
CCN1CCN(Cc2ccc(Nc3ncc(F)c(-c4cc(F)c5nc(C)n(C(C)C)c5c4)n3)nc2)CC1 [ABEMACICLIB]	> 30 µM (inactive)	> 30 µM (inactive)	> 30 µM (inactive)	0.53 µM (active)	> 30 µM (inactive)	> 30 µM (inactive)	–	> 30 µM (inactive)	> 30 µM (inactive)
C[C@@]1(C(=O)Nc2ccc(F)nc2)CCCN1c1nc(Nc2cc(C3CC3)n[nH]2)c2cccn2n1 [BMS-754807]	> 30 µM (inactive)	> 30 µM (inactive)	> 30 µM (inactive)	> 30 µM (inactive)	> 30 µM (inactive)	–	–	–	> 30 µM (inactive)
CN1CCN(c2nc(C3=C(c4c[nH]c5ccccc45)C(=O)NC3=O)c3ccccc3n2)CC1 [SOTRASTAURIN]	> 30 µM (inactive)	> 30 µM (inactive)	> 30 µM (inactive)	–	> 30 µM (inactive)	> 30 µM (inactive)	> 30 µM (inactive)	> 30 µM (inactive)	–
CC(C)CC(=O)Nc1[nH]nc2c1CN(C(=O)C1CCN(C)CC1)C2(C)C [PHA-793887]	> 30 µM (inactive)	> 30 µM (inactive)	> 30 µM (inactive)	> 30 µM (inactive)	> 30 µM (inactive)	–	> 30 µM (inactive)	> 30 µM (inactive)	–
